Patent US7943382B2, “Method for inspecting fat-soluble vitamin and/or fat-soluble food factor by saliva analysis” (Mitsubishi Chemical Medience Corporation, priority 2004, dated 2011)

Experiments:
[1] = Transition of the lycopene and β-carotene levels in parotid saliva on ingestion of lycopene + β-carotene MAX1; assay type: in vivo, human; conditions: lycopene + β-carotene MAX1, two tablets (20 mg lycopene, 60 mg β-carotene) every morning for a week, then two weeks discontinuation; FIGS. 9 and 10
Protocol: 2 of 3 volunteers were made to ingest orally two commercial supplement lycopene +β-carotene MAX1 (trade name, Minami Healthy Food Co.) containing 10 mg of lycopene and 30 mg of β-carotene per one tablet (20 mg of lycopene and 60 mg of β-carotene per two tablet) at 7:00 every morning continuously for a week, and as a specimen, parotid saliva was collected from PM 4:00 to 5:00, three times, that is, before ingestion and one week after ingestion and two weeks after discontinuation of ingestion. The volunteer had the mouth rinsed with water, and kept quiet on a chair for 5 minutes, while the volunteer accumulated saliva in the oral cavity and discharged to initialize the oral cavity, followed by collecting saliva. […] The ingestion states of the supplement, that is, before ingestion and one week after ingestion, and two weeks after discontinuation of ingestion, are arranged on the horizontal axis as points, and the concentrations of lycopene and β-carotene (hereinafter, the measured concentrations of lycopene and β-carotene will be referred to “lycopene level” and “β-carotene level” respectively) in parotid saliva are arranged on the vertical axis, and transition of the lycopene and β-carotene levels in parotid saliva depending on ingestion of supplements is shown in FIGS. 9 and 10.

[2] = cited from earlier work
[3] = Chromatograms of parotid saliva specimens A, B and C (HPLC with ECD detection); assay type: in vivo, human; conditions: Supplement N, one tablet every morning and evening for a month (60 mg CoQ10, 20 mg α-tocopherol per day)
Protocol: In pretreatment of the specimens, 20 μl of plasma and 180 μl of ethanol (Wako Pure Chemical Industries, Ltd.: HPLC grade) were added to an autosampler vial (sampler vial PP 250 μl: Shiseido Co., Ltd.) to have a final ethanol concentration of 90% (V/V), which was centrifuged under cooling by 1000 G for 5 minutes to precipitate proteins. In the case of directly collected saliva, 150 μl of ethanol was added to 50 μl of the specimen to have a final ethanol concentration of 75% (V/V), which was centrifuged under cooling by 1000 G for 5 minutes to precipitate proteins. […]
Ubidecarenol, tocopherol, lycopene and β-carotene can be quantitatively analyzed at 600 mV. […] Therefore, CoQ10 is converted into ubidecarenol by reducing the carbonyl group to the OH group using the above-mentioned commercial online reduction column, and then detected in an oxidation mode using the amperometry-type electrochemical detector 3005 (Shiseido Co., Ltd.) or the pulse-type electrochemical detector 3016 (Shiseido Co., Ltd.) under the HPLC condition shown in FIGS. 1 and 2, allowing the bulk detection as shown in FIGS. 3 and 4. […]

[4] = Transition of the tocopherol level in parotid saliva on ingestion of supplement S; assay type: in vivo, human; conditions: two tablets (32.8 mg α-tocopherol) every morning for a week, then two weeks discontinuation, 3 volunteers, FIG. 8
Protocol: 3 volunteers were made to ingest orally two commercial CoQ10 supplement S containing 32.8 mg of tocopherol per two tablets as α-tocopherol at 7:00 every morning continuously for a week, and as a specimen, parotid saliva was collected from PM 4:00 to 5:00, three times, that is, before ingestion and one week after ingestion and two weeks after discontinuation of ingestion. The volunteer had the mouth rinsed with water, and kept quiet on a chair for 5 minutes, while the volunteer accumulated saliva in the oral cavity and discharged to initialize the oral cavity, followed by collecting saliva. […] The ingestion states of the supplement, that is, before ingestion and one week after ingestion, and two weeks after discontinuation of ingestion are arranged on the horizontal axis as points, and the tocopherol concentrations (hereinafter, the measured concentration of tocopherol will be referred to “tocopherol level”) in parotid saliva are arranged on the vertical axis, and transition of the tocopherol level in parotid saliva depending on states of supplements with tocopherol is shown in FIG. 8.

peak in chromatogram of parotid saliva A (supplement-ingesting volunteer) compared with B (non-ingesting volunteer) [3]	Compound	transition of the level in parotid saliva [1]	detection in the parotid saliva ([2]; Nonpatent document No. 1)	correlation between the serum level and the whole saliva level ([2]; Nonpatent documents No. 1 and 2)	transition of the tocopherol level in parotid saliva [4]
	CC(C)=CCC/C(C)=C/C=C/C(C)=C/C=C/C(C)=C/C=C/C=C(C)/C=C/C=C(C)/C=C/C=C(\C)CCC=C(C)C [lycopene]	obviously increased in the two volunteers who ingested the supplement compared with one volunteer without ingestion, and decreased by discontinuation of ingestion			
	CC1=C(/C=C/C(C)=C/C=C/C(C)=C/C=C/C=C(C)/C=C/C=C(C)/C=C/C2=C(C)CCCC2(C)C)C(C)(C)CCC1 [β-carotene]	obviously increased in the two volunteers who ingested the supplement compared with one volunteer without ingestion, and decreased by discontinuation of ingestion	could not be detected	positive correlation	
higher peak	Tocopherol				increased by ingestion and decreased by discontinuation of ingestion
